Patent US20250353891A1 (MEDIMMUNE LIMITED, priority 2022, published 2025)
Where two headings read alike, the source gives them in different places. Starred links: 1 amine or outer side, 2 acyl side, 3 side chain; linkers in the order of their positions; H or OH if unused. Non-standard residues stand in square brackets, D forms with d. Residues, ends and D or L forms follow the SMILES beside them. Groups on a side chain read outwards from the residue. *: point of attachment. C18 diacid = O=C(O)CCCCCCCCCCCCCCCCC(=O)*; Dip = N[C@H](C(=O)O)C(c1ccccc1)c1ccccc1; γGlu = O=C(O)[C@H](CCC(=O)[*:2])N[*:1]; Stearoyl = CCCCCCCCCCCCCCCCCC(=O)*; Palmitoyl = CCCCCCCCCCCCCCCC(=O)*; αMeF = C[C@](N)(Cc1ccccc1)C(=O)O; PEG4 = NCCOCCOCCOCCOCCC(=O)O; PEG2 = NCCOCCOCCC(=O)O; AEEA = NCCOCCOCC(=O)O; Aib = CC(C)(N)C(=O)O

Experiments:
[1] = tested on: GLP-1R knockout (KO) mice; test: Glucose change in GLP-1R knockout mice; type: in vivo, mouse; settings: GLP-1R KO mice, s.c., 120 min vs 0 min
Procedure: (§1) They acclimated for a minimum of ˜1-2 weeks, and mice were sorted into groups (n=4-8/group) based on body weight. On day of study, mice were fasted briefly for 2 hrs prior to study start. In some studies, mice were pre-treated with octreotide (BaChem, 10 mg/kg) at 30 minutes prior to peptide injection. Glucose was measured via glucometer at various timepoints including-30 min (prior to octreotide when used in studies), 0 min (before peptide dose), 30, 60, 120, 180, 240, and 360 minutes. Since these studies are acute in nature, mice were re-used for multiple studies (no more than 3) and always allowed at least a minimum wash-out period of 1 week.

wildtype (WT) mice = test: Glucose change in wildtype mice; type: in vivo, mouse; settings: s.c., 120 min vs 0 min
Procedure: as §1, with “GLP-1R knockout (KO) and wildtype (WT) mice at 8-14 weeks of age were singly housed on standard chow diet (Envigo, 2918) and automatic water. They” for “They”

[2] = Proteolytic resistance to FasSSIF/Pancreatin; type: in vitro ADME; settings: simulated intestinal fluid
Procedure: A fresh suspension of FasSSIF/P (Fasted-State Simulated Intestinal Fluid+USP Pancreatin®) was prepared according to that described by Galia, Nicolaides, Hörter, Löbenberg, Reppas and Dressman: Pharm. Res. 15 (1998) 698-705, and USP XL requirements. The resulting preparation was used immediately without storage.
Peptide for evaluation (1.0 mg) was dissolved in pre-warmed FasSSIF without Pancreatin® (200 μL). To this fresh FasSSIF/Pancreatin® (100 μL) was added to initiate potential proteolysis. Following momentary vortexing of the reaction tube the mixture was incubated at 37° C. in a thermostatic water bath for the duration of the experiment. 25 μL aliquot of the co-incubated peptide-enzyme mixture was periodically withdrawn (t=0, 5, 10 15 and 30 min) and quenched immediately by addition to a solution of 10% TFA in 1:1 water/acetonitrile (75 μL) to arrest proteolytic activity. Quenched samples were centrifuged (7800 RPM, 3 mins) to pellet solids and 10 μL aliquots of the supernatant solution were analyzed using analytical RP-HPLC as follows: Analytical RP-HPLC method: Agilent Polaris C8-A column (4.6×100 mm, 3 micron) eluted with a linear binary gradient of 10-90% MeCN (0.1% TFA v/v) in water (0.1% TFA v/v) over either 10 or 15 mins at 1.5 mL min^−1 at 40° C. with detection by UV absorption at 210 nm. Manual integration (AUC) allowed estimation of remaining intact peptide over the time course of the experiment.

[3] = Mouse acute food intake study; type: in vivo; settings: male C57Bl/6 mice, s.c., dose 10 nmol/kg, cumulative food intake at 24 hr vs vehicle
How it was run: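 Single-housed male C57Bl/6 mice (8-9 weeks on arrival), chow-fed, acclimated and sham-dosed ≥2 times, were fasted 6-8 h, then given vehicle or peptide subcutaneously at 5 mL/kg 1-2 h before lights out. Food intake was recorded automatically over 48 h and analysed as cumulative intake.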

[4] = target: human GLP-1 receptor (hGLP-1R) (Homo sapiens, UniProt P43220); test: cAMP production (HTRF) in CHO cells expressing hGLP-1R; type: cell-based; design: expressed in transfected cells; settings: for EC50: geometric mean, read-out: hGLP-1R EC50; for % Relative Potency Ratio: % GLP-1R activity relative to GLP-1 / % GlucR activity relative to glucagon
human GLP-1 receptor (hGLP-1R), sequence (P43220 24-463): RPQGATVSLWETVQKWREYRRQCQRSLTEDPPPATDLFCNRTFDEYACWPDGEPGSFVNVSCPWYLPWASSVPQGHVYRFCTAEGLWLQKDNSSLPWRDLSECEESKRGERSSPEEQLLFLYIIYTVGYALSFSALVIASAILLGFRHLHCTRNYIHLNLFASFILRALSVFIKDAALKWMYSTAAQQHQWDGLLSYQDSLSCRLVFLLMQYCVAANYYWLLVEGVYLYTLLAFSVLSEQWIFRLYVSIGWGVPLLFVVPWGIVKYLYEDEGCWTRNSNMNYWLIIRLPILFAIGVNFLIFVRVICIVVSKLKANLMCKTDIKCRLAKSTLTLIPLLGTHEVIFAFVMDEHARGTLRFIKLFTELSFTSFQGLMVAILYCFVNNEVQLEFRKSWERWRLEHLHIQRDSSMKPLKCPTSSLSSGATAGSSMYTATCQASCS
How it was run: (§2)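 Cells were resuspended in assay buffer at batch-optimized density, typically 1×10^5 cells/mL for hGLP-1R and 2×10^5 cells/mL for hGCGR. After 30 min incubation at room temperature with compound, cAMP was measured by two-step HTRF. EC50 values came from 4-parameter logistic fits of % Delta F.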

[5] = target: human glucagon receptor (hGCGR) (Homo sapiens, UniProt P47871); test: cAMP production (HTRF) in CHO cells expressing hGCGR; type: cell-based; design: expressed in transfected cells; settings: geometric mean, read-out: hGluc-R EC50
human glucagon receptor (hGCGR), sequence (P47871 26-477): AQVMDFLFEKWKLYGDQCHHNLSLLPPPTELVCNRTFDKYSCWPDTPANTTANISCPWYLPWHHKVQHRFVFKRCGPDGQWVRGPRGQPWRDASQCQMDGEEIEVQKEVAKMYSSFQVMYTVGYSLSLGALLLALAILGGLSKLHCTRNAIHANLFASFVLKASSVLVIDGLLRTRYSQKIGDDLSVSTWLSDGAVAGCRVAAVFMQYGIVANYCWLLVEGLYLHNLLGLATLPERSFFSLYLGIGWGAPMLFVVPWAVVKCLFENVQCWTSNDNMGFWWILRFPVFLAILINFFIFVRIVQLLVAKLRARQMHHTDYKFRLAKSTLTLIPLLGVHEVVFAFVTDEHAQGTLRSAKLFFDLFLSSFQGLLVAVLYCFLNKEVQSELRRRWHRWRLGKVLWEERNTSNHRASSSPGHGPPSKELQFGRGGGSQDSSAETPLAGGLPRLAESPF
How it was run: as §2

[6] = 3 nmol/kg, no somatostatin pretreatment
[7] = Table 6, peptides modified at position 17, cAMP in CHO hGLP-1R cells
[8] = Table 6, peptides modified at position 17, cAMP in CHO hGCGR cells
[9] = 10 nmol/kg, somatostatin pretreatment (octreotide) 30 min prior to cpd
[10] = 30 nmol/kg, somatostatin pretreatment (octreotide) 30 min prior to cpd

Row | Structure (SMILES) | GLP-1R KO % glucose change 120 min [1, 6] [%] | WT % glucose change 120 min (wildtype (WT) mice; [6]) [%] | remaining at 5 min, 3.3 mg/mL [2] [%] | remaining at 10 min, 3.3 mg/mL [2] [%] | remaining at 0.25 h, 3.3 mg/mL [2] [%] | remaining at 0.5 h, 3.3 mg/mL [2] [%] | 24 hr % Vehicle Food Intake [3] [%] | EC50 [4, 7] [pM] | % Relative Potency Ratio ([4]; Table 6) | EC50 [5, 8] [pM] | GLP-1R KO % glucose change 120 min [1, 9] [%] | GLP-1R KO % glucose change 120 min [1, 10] [%] | WT % glucose change 120 min (wildtype (WT) mice; [9]) [%] | WT % glucose change 120 min (wildtype (WT) mice; [10]) [%] | % Relative Potency Ratio [4] | EC50 ([4]; cAMP, CHO cells, 0.1% BSA) [pM] | EC50 ([5]; cAMP, CHO cells, 0.1% BSA) [pM]
1 | CCCCCCCCCCCCCCCC(=O)N[C@@H](CCC(=O)N[C@@H](CCC(=O)NCCOCCOCCOCCOCCC(=O)NCCCC[C@H](NC(=O)[C@H](CO)NC(=O)[C@H](CC(=O)O)NC(=O)[C@H](CC(C)C)NC(=O)[C@@H](NC(=O)[C@H](CCCCN)NC(=O)[C@H](CO)NC(=O)[C@@H](NC(=O)[C@H](CC(=O)O)NC(=O)[C@H](CO)NC(=O)[C@@H](NC(=O)[C@](C)(Cc1ccccc1)NC(=O)[C@H](CO)NC(=O)CNC(=O)[C@H](CCC(N)=O)NC(=O)C(C)(C)NC(=O)[C@@H](N)Cc1c[nH]cn1)[C@@H](C)O)C(C)C)C(c1ccccc1)c1ccccc1)C(=O)N[C@@H](CCCNC(=N)N)C(=O)N[C@@H](C)C(=O)N[C@@H](CCC(N)=O)C(=O)N[C@@H](CC(=O)O)C(=O)N[C@@](C)(Cc1ccccc1)C(=O)N[C@H](C(=O)N[C@@H](CCC(=O)O)C(=O)NC(C)(C)C(=O)N[C@@H](CC(C)C)C(=O)N[C@@H](CCC(=O)O)C(=O)N[C@@H](C)C(=O)NCC(=O)NCC(N)=O)C(C)C)C(=O)O)C(=O)O [Peptide 43] (H-H[Aib]QGS[αMeF]TSDVSK[Dip]LDSK([PEG4-γGlu-γGlu-Palmitoyl])RAQD[αMeF]VE[Aib]LEAGG-NH2; N-terminus assumed) | 63.9 | −56.0 | 83 | 33 | 29 | 19 | 53.2 | 1.89 | 5.8 | 5.52 |  |  |  |  |  |  | 
2 | CCCCCCCCCCCCCCCCCC(=O)N[C@@H](CCC(=O)N[C@@H](CCC(=O)NCCOCCOCCC(=O)NCCOCCOCCC(=O)NCCCC[C@H](NC(=O)[C@H](CO)NC(=O)[C@H](CC(=O)O)NC(=O)[C@H](CC(C)C)NC(=O)[C@@H](NC(=O)[C@H](CCCCN)NC(=O)[C@H](CO)NC(=O)[C@@H](NC(=O)[C@H](CC(=O)O)NC(=O)[C@H](CO)NC(=O)[C@@H](NC(=O)[C@](C)(Cc1ccccc1)NC(=O)[C@H](CO)NC(=O)CNC(=O)[C@H](CCC(N)=O)NC(=O)[C@H](CO)NC(=O)[C@@H](N)Cc1c[nH]cn1)[C@@H](C)O)C(C)C)C(c1ccccc1)c1ccccc1)C(=O)N[C@@H](C)C(=O)N[C@@H](C)C(=O)N[C@@H](CCC(N)=O)C(=O)N[C@@H](CC(=O)O)C(=O)N[C@@](C)(Cc1ccccc1)C(=O)N[C@H](C(=O)N[C@@H](CCC(=O)O)C(=O)NC(C)(C)C(=O)N[C@H](C(=O)N[C@@H](C)C(=O)N[C@@H](CC(N)=O)C(=O)N[C@H](C(N)=O)[C@@H](C)O)[C@@H](C)CC)C(C)C)C(=O)O)C(=O)O [Peptide 49] (H-HSQGS[αMeF]TSDVSK[Dip]LDSK([PEG2-PEG2-γGlu-γGlu-Stearoyl])AAQD[αMeF]VE[Aib]IANT-NH2; N-terminus assumed) |  |  | 97 | 96 | 95 | 90 | 69.2 | 1.74 | 2.0 | 1.73 | 193.3 | 154.3 | −1.2 | 16.8 |  |  | 
3 | CC[C@H](C)[C@H](NC(=O)[C@H](Cc1c[nH]c2ccccc12)NC(=O)[C@H](CCCCNC(=O)COCCOCCNC(=O)COCCOCCNC(=O)CC[C@H](NC(=O)CCCCCCCCCCCCCCCCC(=O)O)C(=O)O)NC(=O)[C@@H](NC(=O)[C@H](Cc1ccccc1)NC(=O)[C@H](CC(=O)O)NC(=O)[C@H](CCC(N)=O)NC(=O)[C@H](C)NC(=O)[C@H](C)NC(=O)[C@H](CCCNC(=N)N)NC(=O)[C@H](CO)NC(=O)[C@H](CC(=O)O)NC(=O)[C@H](CC(C)C)NC(=O)[C@](C)(Cc1ccccc1)NC(=O)[C@H](CCCCN)NC(=O)[C@H](CO)NC(=O)[C@@H](NC(=O)[C@H](CC(=O)O)NC(=O)[C@H](CO)NC(=O)[C@@H](NC(=O)[C@](C)(Cc1ccccc1)NC(=O)[C@H](CO)NC(=O)CNC(=O)[C@H](Cc1c[nH]cn1)NC(=O)C(C)(C)NC(=O)[C@@H](N)Cc1c[nH]cn1)[C@@H](C)O)C(C)C)C(C)C)C(=O)N[C@@H](C)C(=O)N[C@@H](CC(N)=O)C(=O)N[C@H](C(N)=O)[C@@H](C)O [Peptide 361] (H-H[Aib]HGS[αMeF]TSDVSK[αMeF]LDSRAAQDFVK([AEEA-AEEA-γGlu-C18 diacid])WIANT-NH2; N-terminus assumed) |  |  |  |  |  |  | 78.8 |  |  |  | 91.5 | 93.8 | −23.0 | −38.1 | 1.3 | 35.7 | 23.6
